One may read the MFC as the lowest tested concentration that kills the fungus rather than only halting it. A high value points to less potent killing. What is called MIC50 is an inhibitory concentration at the 50% level, which refers to growth in some studies and to a panel of isolates in others.

Structures are written as SMILES. In brackets after ≈: the same amount, converted by molar mass. Activity calls are given as the source filed them. The calls are words filed in the database; no cut-off is given here. Bounds are passed on as bounds.

In ChEMBL document CHEMBL1649545, “Efficacy of triazoles in a murine disseminated infection by Candida krusei” (2009) one finds Activity, MFC and MIC50 data, which are given here for 2 compounds.

The test system of test [1] is Pichia kudriavzevii. Put plainly: Antifungal activity against Candida krusei FMR9729 infected OF1 mouse disseminated infection model assessed as reduction in spleen tissue fungal burden at 100 mg/kg/day, po for 5 days administered 24 hrs postinfection measured after 24 hrs post treatment relative to control. It counts as functional, organism-based.
The test system of test [2] is Pichia kudriavzevii. The test is described as follows: Antifungal activity against Candida krusei FMR9729 infected OF1 mouse disseminated infection model assessed as reduction in spleen tissue fungal burden at 50 mg/kg/day, po for 5 days administered 24 hrs postinfection measured after 24 hrs post treatment relative to control. It counts as functional, organism-based.

The subject of test [3] is Pichia kudriavzevii. The test is described as follows: Antifungal activity against Candida krusei FMR9729 by M27-A2 broth dilution method. It counts as functional. On the technique in general: Broth dilution looks for growth in wells or tubes with falling amounts of substance.
For test [4], the system named is Pichia kudriavzevii. The test is described as follows: Antifungal activity against Candida krusei FMR9728 infected OF1 mouse disseminated infection model assessed as reduction in spleen tissue fungal burden at 100 mg/kg/day, po for 5 days administered 24 hrs postinfection measured after 24 hrs post treatment relative to control. It counts as functional, organism-based.

Test [5] deals with Pichia kudriavzevii. Put plainly: Antifungal activity against Candida krusei FMR9728 infected OF1 mouse disseminated infection model assessed as reduction in spleen tissue fungal burden at 50 mg/kg/day, po for 5 days administered 24 hrs postinfection measured after 24 hrs post treatment relative to control. It counts as functional, organism-based.
The subject of test [6] is Pichia kudriavzevii. Put plainly: Antifungal activity against Candida krusei FMR9729 infected OF1 mouse disseminated infection model assessed as reduction in kidney tissue fungal burden at 50 mg/kg/day, po for 5 days administered 24 hrs postinfection measured after 24 hrs post treatment relative to control. It counts as functional, organism-based.
For test [7], the system named is Pichia kudriavzevii. Put plainly: Antifungal activity against Candida krusei FMR9728 by M27-A2 broth dilution method. It counts as functional.
Test [8] deals with Pichia kudriavzevii. Put plainly: Antifungal activity against Candida krusei FMR9728 infected OF1 mouse disseminated infection model assessed as reduction in kidney tissue fungal burden at 50 mg/kg/day, po for 5 days administered 24 hrs postinfection measured after 24 hrs post treatment relative to control. It counts as functional, organism-based.
Test [9] deals with Pichia kudriavzevii. Put plainly: Antifungal activity against 5 x 10^7 CFU Candida krusei FMR9728 infected OF1 mouse disseminated infection model assessed as prolongation of mouse survival at 50 mg/kg/day, po for 5 days administered 24 hrs postinfection measured daily for 15 days. It counts as functional, organism-based.
The test system of test [10] is Pichia kudriavzevii. The test is described as follows: Antifungal activity against Candida krusei FMR9729 infected OF1 mouse disseminated infection model assessed as reduction in kidney tissue fungal burden at 100 mg/kg/day, po for 5 days administered 24 hrs postinfection measured after 24 hrs post treatment relative to control. It counts as functional, organism-based.

For test [11], the system named is Pichia kudriavzevii. The test is described as follows: Antifungal activity against Candida krusei FMR9728 infected OF1 mouse disseminated infection model assessed as reduction in kidney tissue fungal burden at 100 mg/kg/day, po for 5 days administered 24 hrs postinfection measured after 24 hrs post treatment relative to control. It counts as functional, organism-based.

The test system of test [12] is Pichia kudriavzevii. The test is described as follows: Antifungal activity against 5 x 10^7 CFU Candida krusei FMR9729 infected OF1 mouse disseminated infection model assessed as prolongation of mouse survival at 50 mg/kg/day, po for 5 days administered 24 hrs postinfection measured daily for 15 days. It counts as functional, organism-based.
In test [13] the test system is Pichia kudriavzevii. The test is described as follows: Antifungal activity against 5 x 10^7 CFU Candida krusei FMR9729 infected OF1 mouse disseminated infection model assessed as prolongation of mouse survival at 100 mg/kg/day, po for 5 days administered 24 hrs postinfection measured daily for 15 days. It counts as functional, organism-based.
In test [14] the test system is Pichia kudriavzevii. The test is described as follows: Antifungal activity against 5 x 10^7 CFU Candida krusei FMR9728 infected OF1 mouse disseminated infection model assessed as prolongation of mouse survival at 100 mg/kg/day, po for 5 days administered 24 hrs postinfection measured daily for 15 days. It counts as functional, organism-based.
Test [15] relates to Pichia kudriavzevii. Put plainly: Antifungal activity against Candida krusei FMR9729 infected OF1 mouse disseminated infection model assessed as reduction in spleen tissue fungal burden at 10 mg/kg/day, iv for 5 days administered 24 hrs postinfection measured after 24 hrs post treatment relative to control. It counts as functional, organism-based.
The subject of test [16] is Pichia kudriavzevii. The test is described as follows: Antifungal activity against Candida krusei FMR9729 infected OF1 mouse disseminated infection model assessed as reduction in spleen tissue fungal burden at 20 mg/kg/day, iv for 5 days administered 24 hrs postinfection measured after 24 hrs post treatment relative to control. It counts as functional, organism-based.

Test [17] concerns Pichia kudriavzevii. Put plainly: Antifungal activity against Candida krusei FMR9728 infected OF1 mouse disseminated infection model assessed as reduction in kidney tissue fungal burden at 10 mg/kg/day, iv for 5 days administered 24 hrs postinfection measured after 24 hrs post treatment relative to control. It counts as functional, organism-based.
Test [18] relates to Pichia kudriavzevii. The test is described as follows: Antifungal activity against Candida krusei FMR9729 infected OF1 mouse disseminated infection model assessed as reduction in kidney tissue fungal burden at 20 mg/kg/day, iv for 5 days administered 24 hrs postinfection measured after 24 hrs post treatment relative to control. It counts as functional, organism-based.
The test system of test [19] is Pichia kudriavzevii. The test is described as follows: Antifungal activity against 5 x 10^7 CFU Candida krusei FMR9728 infected OF1 mouse disseminated infection model assessed as prolongation of mouse survival at 20 mg/kg/day, iv for 5 days administered 24 hrs postinfection measured daily for 15 days. It counts as functional, organism-based.
The test system of test [20] is Pichia kudriavzevii. Put plainly: Antifungal activity against 5 x 10^7 CFU Candida krusei FMR9728 infected OF1 mouse disseminated infection model assessed as prolongation of mouse survival at 60 mg/kg/day, po for 5 days administered 24 hrs postinfection measured daily for 15 days. It counts as functional, organism-based.
Test [21] deals with Pichia kudriavzevii. Put plainly: Antifungal activity against 5 x 10^7 CFU Candida krusei FMR9729 infected OF1 mouse disseminated infection model assessed as prolongation of mouse survival at 40 mg/kg/day, po for 5 days administered 24 hrs postinfection measured daily for 15 days. It counts as functional, organism-based.
The test system of test [22] is Pichia kudriavzevii. Put plainly: Antifungal activity against Candida krusei FMR9729 infected OF1 mouse disseminated infection model assessed as reduction in spleen tissue fungal burden at 40 mg/kg/day, po for 5 days administered 24 hrs postinfection measured after 24 hrs post treatment relative to control. It counts as functional, organism-based.
The subject of test [23] is Pichia kudriavzevii. Put plainly: Antifungal activity against 5 x 10^7 CFU Candida krusei FMR9728 infected OF1 mouse disseminated infection model assessed as prolongation of mouse survival at 10 mg/kg/day, iv for 5 days administered 24 hrs postinfection measured daily for 15 days. It counts as functional, organism-based.
Test [24] concerns Pichia kudriavzevii. Put plainly: Antifungal activity against 5 x 10^7 CFU Candida krusei FMR9729 infected OF1 mouse disseminated infection model assessed as prolongation of mouse survival at 20 mg/kg/day, iv for 5 days administered 24 hrs postinfection measured daily for 15 days. It counts as functional, organism-based.
Test [25] concerns Pichia kudriavzevii. Put plainly: Antifungal activity against Candida krusei FMR9729 infected OF1 mouse disseminated infection model assessed as reduction in kidney tissue fungal burden at 40 mg/kg/day, po for 5 days administered 24 hrs postinfection measured after 24 hrs post treatment relative to control. It counts as functional, organism-based.
The subject of test [26] is Pichia kudriavzevii. Put plainly: Antifungal activity against 5 x 10^7 CFU Candida krusei FMR9728 infected OF1 mouse disseminated infection model assessed as prolongation of mouse survival at 40 mg/kg/day, po for 5 days administered 24 hrs postinfection measured daily for 15 days. It counts as functional, organism-based.
In test [27] the test system is Pichia kudriavzevii. Put plainly: Antifungal activity against Candida krusei FMR9729 infected OF1 mouse disseminated infection model assessed as reduction in spleen tissue fungal burden at 60 mg/kg/day, po for 5 days administered 24 hrs postinfection measured after 24 hrs post treatment relative to control. It counts as functional, organism-based.
In test [28] the test system is Pichia kudriavzevii. The test is described as follows: Antifungal activity against Candida krusei FMR9729 infected OF1 mouse disseminated infection model assessed as reduction in kidney tissue fungal burden at 10 mg/kg/day, iv for 5 days administered 24 hrs postinfection measured after 24 hrs post treatment relative to control. It counts as functional, organism-based.

Test [29] concerns Pichia kudriavzevii. Put plainly: Antifungal activity against Candida krusei FMR9728 infected OF1 mouse disseminated infection model assessed as reduction in spleen tissue fungal burden at 20 mg/kg/day, iv for 5 days administered 24 hrs postinfection measured after 24 hrs post treatment relative to control. It counts as functional, organism-based.
The subject of test [30] is Pichia kudriavzevii. Put plainly: Antifungal activity against 5 x 10^7 CFU Candida krusei FMR9729 infected OF1 mouse disseminated infection model assessed as prolongation of mouse survival at 60 mg/kg/day, po for 5 days administered 24 hrs postinfection measured daily for 15 days. It counts as functional, organism-based.
For test [31], the system named is Pichia kudriavzevii. Put plainly: Antifungal activity against Candida krusei FMR9728 infected OF1 mouse disseminated infection model assessed as reduction in spleen tissue fungal burden at 40 mg/kg/day, po for 5 days administered 24 hrs postinfection measured after 24 hrs post treatment relative to control. It counts as functional, organism-based.
Test [32] deals with Pichia kudriavzevii. The test is described as follows: Antifungal activity against Candida krusei FMR9728 infected OF1 mouse disseminated infection model assessed as reduction in kidney tissue fungal burden at 60 mg/kg/day, po for 5 days administered 24 hrs postinfection measured after 24 hrs post treatment relative to control. It counts as functional, organism-based.
Test [33] has as its system Pichia kudriavzevii. The test is described as follows: Antifungal activity against Candida krusei FMR9728 infected OF1 mouse disseminated infection model assessed as reduction in spleen tissue fungal burden at 60 mg/kg/day, po for 5 days administered 24 hrs postinfection measured after 24 hrs post treatment relative to control. It counts as functional, organism-based.

The test system of test [34] is Pichia kudriavzevii. The test is described as follows: Antifungal activity against 5 x 10^7 CFU Candida krusei FMR9729 infected OF1 mouse disseminated infection model assessed as prolongation of mouse survival at 10 mg/kg/day, iv for 5 days administered 24 hrs postinfection measured daily for 15 days. It counts as functional, organism-based.
Test [35] deals with Pichia kudriavzevii. Put plainly: Antifungal activity against Candida krusei FMR9729 infected OF1 mouse disseminated infection model assessed as reduction in kidney tissue fungal burden at 60 mg/kg/day, po for 5 days administered 24 hrs postinfection measured after 24 hrs post treatment relative to control. It counts as functional, organism-based.
Test [36] deals with Pichia kudriavzevii. Put plainly: Antifungal activity against Candida krusei FMR9728 infected OF1 mouse disseminated infection model assessed as reduction in kidney tissue fungal burden at 20 mg/kg/day, iv for 5 days administered 24 hrs postinfection measured after 24 hrs post treatment relative to control. It counts as functional, organism-based.
Test [37] has as its system Pichia kudriavzevii. Put plainly: Antifungal activity against Candida krusei FMR9728 infected OF1 mouse disseminated infection model assessed as reduction in spleen tissue fungal burden at 10 mg/kg/day, iv for 5 days administered 24 hrs postinfection measured after 24 hrs post treatment relative to control. It counts as functional, organism-based.
For test [38], the system named is Pichia kudriavzevii. The test is described as follows: Antifungal activity against Candida krusei FMR9728 infected OF1 mouse disseminated infection model assessed as reduction in kidney tissue fungal burden at 40 mg/kg/day, po for 5 days administered 24 hrs postinfection measured after 24 hrs post treatment relative to control. It counts as functional, organism-based.

On to `CC[C@@H]([C@H](C)O)n1ncn(-c2ccc(N3CCN(c4ccc(OC[C@@H]5CO[C@@](Cn6cncn6)(c6ccc(F)cc6F)C5)cc4)CC3)cc2)c1=O` [POSACONAZOLE], for which the result with Pichia kudriavzevii [1], in the test on Pichia kudriavzevii [2], in the test on Pichia kudriavzevii [4], with Pichia kudriavzevii [5], in the test with Pichia kudriavzevii [6] and in the test on Pichia kudriavzevii [8] was Active. Moreover, the result in the test on Pichia kudriavzevii [9], with Pichia kudriavzevii [10], with Pichia kudriavzevii [11], in the test on Pichia kudriavzevii [12], in the test on Pichia kudriavzevii [13] and in the test on Pichia kudriavzevii [14] was Active. The MFC in the test on Pichia kudriavzevii [3] was 2 µg/mL (≈ 2.85 µM); in the test on Pichia kudriavzevii [7], 1 µg/mL (≈ 1.43 µM). The MIC50 against Pichia kudriavzevii [3] is 0.25 µg/mL (≈ 0.357 µM); against Pichia kudriavzevii [7] it was 0.125 µg/mL (≈ 0.178 µM).
In the case of `C[C@@H](c1ncncc1F)[C@](O)(Cn1cncn1)c1ccc(F)cc1F` [VORICONAZOLE], the result in the test with Pichia kudriavzevii [15], with Pichia kudriavzevii [16], in the test on Pichia kudriavzevii [17], with Pichia kudriavzevii [18], with Pichia kudriavzevii [22] and in the test with Pichia kudriavzevii [25] was inactive. Also, the result with Pichia kudriavzevii [28], with Pichia kudriavzevii [29], with Pichia kudriavzevii [36] and in the test on Pichia kudriavzevii [37] was inactive. In addition, the MFC against Pichia kudriavzevii [3] was above 16 µg/mL; with Pichia kudriavzevii [7], 16 µg/mL (≈ 45.8 µM). Moreover, the MIC50 in the test with Pichia kudriavzevii [3] was 0.25 µg/mL (≈ 0.716 µM); in the test with Pichia kudriavzevii [7], 0.125 µg/mL (≈ 0.358 µM). Besides, the result in the test with Pichia kudriavzevii [19], with Pichia kudriavzevii [20], in the test on Pichia kudriavzevii [21], in the test on Pichia kudriavzevii [23], with Pichia kudriavzevii [24] and in the test on Pichia kudriavzevii [26] was Active. Besides, the outcome with Pichia kudriavzevii [27], in the test on Pichia kudriavzevii [30], in the test with Pichia kudriavzevii [31], in the test with Pichia kudriavzevii [32], in the test on Pichia kudriavzevii [33] and in the test on Pichia kudriavzevii [34] was Active. For the same compound, the result in the test with Pichia kudriavzevii [35] and in the test with Pichia kudriavzevii [38] was Active.
